# Laboratory results from paper PMC4279419, “Angiostatic, tumor inflammatory and anti-tumor effects of CXCL4^47–70 and CXCL4L1^47–70 in an EGF-dependent breast cancer model” (Oncotarget, 2014).
# Where no end group is shown, it is not given here.
# Assays:
# CCL5 = CCL5 binding (heterodimerization) assay in 96-well plates; parameters: species or system human; details: biotinylated peptides; 37 °C; 50 ng/ml CCL5 coated; OD450; n=3
# Procedure: (§1) GAG, EGF and CCL5 binding were quantified in 96-well plates following a similar protocol. GAG binding was evaluated by immobilizing low molecular weight heparin (Iduron, Manchester, UK) on EpranEx plates (BD Biosciences), whereas EGF as well as CCL5 recombinant human protein (R&D Systems and PeproTech, respectively) was immobilized on high protein-binding ELISA plates (Corning life sciences, Tewksbury, MA). In brief, 25 μg/ml GAG [diluted in assay buffer 100 mM NaCl, 50 mM NaAc, pH 7.2, and 0.2% (v/v) Tween-20], 2 μg/ml EGF or 50 ng/ml CCL5 (both diluted in PBS), was coated overnight at room temperature on 96-well plates. Plates were washed three times with either assay buffer or 0.5% (v/v) Tween 20 in PBS and blocked at 37°C with buffer enriched with either 0.2% (w/v) gelatin (heparin binding assay) or 0.1% (w/v) casein (EGF or CCL5 binding assay). Subsequently, a dilution curve of biotinylated CXCL4L1^47–70 and CXCL4^47–70 peptide was pipetted on the plate and incubated at 37 °C to allow interaction with heparin, EGF or CCL5. After washing, retained biotinylated peptide was detected by peroxidase-conjugated streptavidin. Peroxidase activity was quantified by measuring the conversion of 3,3′,5,5′-tetramethylbenzidine (Sigma-Aldrich) at 450 nm.
# [1] = test system: human acute monocytic leukemia cells (THP-1); assay: Transendothelial multiscreen chemotaxis assay; assay type: cell-based; details: HMVEC monolayer, n=3 to 4; for effect on CCL5-induced transendothelial migration: peptide 1000 to 5000 ng/ml + CCL5 20 ng/ml, 3 to 5 hours, 37°C, ATPlite
# Procedure: Monocyte chemotaxis assays were performed on 5 μm hydrophilic polycarbonate multiscreen-MIC plates (Millipore) using the human acute monocytic leukemia cells (THP-1). To promote efficient synergy between CCL5 on one hand and CXCL4, CXCL4^47–70 or CXCL4L1^47–70 on the other hand, the upper compartment of these plates was coated with a HMVEC monolayer. HMVEC were seeded on a 0.1% gelatin layer 24 hours prior to the chemotaxis assay. The following day, dilutions of recombinant human CCL5 (PeproTech, Rocky Hill, CT), natural human CXCL4 (isolated from stimulated platelets as previously described), recombinant human CXCL4L1 (isolated from baculovirus-infected Sf9 cells as previously described), synthetic CXCL4^47–70, synthetic CXCL4L1^47–70 (both produced as described above), or combinations thereof were added to the lower compartment of the plate, in a volume of 150 μl. After removal of the HMVEC medium, 0.35 × 10^6 THP-1 cells were added to the upper wells, resuspended in phenol red-free RPMI + 0.1 g/100 ml BSA (endotoxin-free BSA; Sigma CatN° A8806) after centrifugation of the cells at 200g for 10 min. Plates were incubated at 37°C for 3 to 5 hours before quantifying the amount of cells that migrated towards the chemokine concentrations. For that purpose, we used the ATPlite kit (PerkinElmer, Waltham, MA) allowing quantitative luminescent detection of ATP, which is representative of THP-1 cell counts in the lower wells. This reaction was performed in a view white 96-well plate (PerkinElmer). A chemotactic index (CI) was calculated, defined as the ratio of luminescence after chemokine treatment and luminescence after control treatment.
# [2] = test system: human retinal microvascular endothelial cells (HMVEC); assay: HMVEC MTT proliferation assay; assay type: cell-based; details: control PI=1, 3 to 4 days, MTT, mean ± s.e.m.; for Proliferation index (PI), baseline (single stimulus): no growth factor
# Procedure: (§2) First, HMVEC and HLEC were seeded at 5 × 10^3 cells/well in EBM-2 + 1% FCS in a 96-well plate, whereas MDA-MB-231 were starved of growth factors overnight by replacing their growth medium with DMEM (serum-free) prior to seeding the tumor cells at 15 × 10^2 cells/well in DMEM + 1% FCS. As for the rest of the assay, the same protocol applies to all cells. Once adherent, cells were incubated with different concentrations of the peptides CXCL4^47–70 and CXCL4L1^47–70 as single stimuli or in combination with recombinant human EGF (3 ng/ml; R&D Systems, Minneapolis, MN) at 37°C/5% CO2. All conditions were tested in triplicate or quadruplicate. After 3 to 4 days, stimulation medium was removed and a sterile MTT solution was added [0.04 g/100 ml thiazolyl blue (Sigma-Aldrich, St. Louis, MO) in 20% PBS/80% RPMI without phenol red (Lonza)] for 3 to 4 hours. The formed formasan crystals were dissolved by replacing the MTT solution with acidic propanol (0.04 M HCl, 0.1% (v/v) Nondet P-40 in absolute isopropanol) and shaking the plate, shielded from light, for 10 minutes. Optical density (OD) was determined at 570 nm and 630 nm. The obtained ODs were processed to proliferation indexes (PI), expressed relative to appropriate buffer controls, i.e. ΔOD570–630X over ΔOD570–630CO.
# [3] = test system: CD31-positive vessels of MDA-MB-231 tumors; assay: CD31 immunohistochemistry of resected tumors (vascularization); assay type: in vivo, mice; details: 2.5 μg intratumoral 3×/week; data not shown
# Procedure: The impact of peptide treatment on the tumor vasculature was evaluated by quantification of immunohistochemically stained CD31-positive vessels. […] This inconsistency between our observations in vitro and in vivo evokes the question which alternative mechanisms may contribute to the anti-tumoral impact of peptide treatment as evidenced in the MDA-MB-231 tumor model.
# CHO/CXCR3A cells = assay: CXCR3A binding (flow cytometry); details: NH2-terminally biotinylated peptides, 3 to 3000 ng/ml, data not shown
# From the text: (§3) We further tried to reveal the mode of action of CXCL4^47–70 and CXCL4L1^47–70. First, we excluded that either peptide still binds/activates one of the CXCR3 isoforms, the receptors for intact CXCL4 and CXCL4L1.
# EGF = EGF binding (heterodimerization) assay in 96-well plates; parameters: species or system human; details: amino-terminally biotinylated peptides; 37 °C; 2 μg/ml EGF coated; OD450; n=3
# Procedure: as §1
# CHO/CXCR3B cells = assay: CXCR3B binding (flow cytometry); details: NH2-terminally biotinylated peptides, 3 to 3000 ng/ml, data not shown
# From the text: as §3
# MDA-MB-231 cells = assay: MDA-MB-231 MTT proliferation assay; assay type: cell-based, human; details: control PI=1, DMEM + 1% FCS, 3 to 4 days, mean ± s.e.m.
# Procedure: as §2
# [4] = peptide 0.3 μg/ml + EGF 3 ng/ml, n=7, p=0.015 (CXCL4^47–70), p=0.041 (CXCL4L1^47–70) versus EGF
# [5] = peptide 1 μg/ml + EGF 3 ng/ml, n=7, p=0.003 (CXCL4^47–70), p=0.015 (CXCL4L1^47–70) versus EGF
# [6] = peptide 1 μg/ml, n=8, p=0.011 (CXCL4^47–70), p=0.043 (CXCL4L1^47–70)
# [7] = peptide 3 μg/ml + EGF 3 ng/ml, n=6, p=0.008 (CXCL4^47–70), n=7, p=0.041 (CXCL4L1^47–70) versus EGF
# [8] = peptide 3 μg/ml, n=6, p=0.001 (CXCL4^47–70), n=7, p=0.009 (CXCL4L1^47–70)
# [9] = peptide 3 μg/ml, n=7 in triplicate, p<0.001
# [10] = peptide 10 μg/ml, in triplicate, n=3, p<0.001 (CXCL4^47–70), n=7, p=0.01 (CXCL4L1^47–70)
binding to EGF-coated plate (EGF),Substance,binding to CCL5-coated plate (CCL5),effect on CCL5-induced transendothelial migration [1],"Proliferation index (PI), EGF-stimulated [2, 4]","Proliferation index (PI), EGF-stimulated [2, 5]","Proliferation index (PI), baseline (single stimulus) [2, 6]","Proliferation index (PI), EGF-stimulated [2, 7]","Proliferation index (PI), baseline (single stimulus) [2, 8]",vascularization of resected tumors (CD31-positive vessels) [3],specific binding to CHO/CXCR3A (CHO/CXCR3A cells),specific binding to CHO/CXCR3B (CHO/CXCR3B cells),Proliferation index (PI) (MDA-MB-231 cells; [9]),Proliferation index (PI) (MDA-MB-231 cells; [10]),"Proliferation index (PI) (MDA-MB-231 cells; peptide 30 μg/ml, n=3 in triplicate, p<0.001)",stimulation of monocytic cell chemotaxis compared to CXCL4L1^47–70 ([1]; peptide 1000 to 5000 ng/ml with CCL5 20 ng/ml),"Proliferation index (PI) (MDA-MB-231 cells; peptide 0.3 μg/ml, n=7 in triplicate, p=0.023)"
equally well in a dose-dependent manner,"CXCL4L1^47–70: synthetic human carboxy-terminal peptide restricted to the last 24 amino acids of CXCL4L1, Fmoc chemistry",directly and equally well interacted with CCL5,enhanced transendothelial migration of monocytic cells,1.17 ± 0.06,1.05 ± 0.07,0.86 ± 0.12,0.98 ± 0.13,0.70 ± 0.09,"neither CXCL4^47–70, nor CXCL4L1^47–70 was reflected by a reduced vascularization",could not detect specific binding,could not detect specific binding,0.78 ± 0.04,0.76 ± 0.08,0.26 ± 0.04,–,–
equally well in a dose-dependent manner,"CXCL4^47–70: synthetic human carboxy-terminal peptide restricted to the last 24 amino acids of CXCL4, Fmoc chemistry (NGRKICLDLQAPLYKKIIKKLLES; not fully specified (N-terminus))",directly and equally well interacted with CCL5,enhanced transendothelial migration of monocytic cells,1.13 ± 0.07,0.96 ± 0.06,0.77 ± 0.08,0.93 ± 0.07,0.59 ± 0.09,"neither CXCL4^47–70, nor CXCL4L1^47–70 was reflected by a reduced vascularization",could not detect specific binding,could not detect specific binding,0.66 ± 0.04,0.21 ± 0.05,–,more efficiently stimulated monocytic cell chemotaxis compared to CXCL4L1^47–70,0.87 ± 0.04
